In patent publication US20150359794A1, “IMPAIRMENT OF THE LARGE RIBOSOMAL SUBUNIT PROTEIN RPL24 BY DEPLETION OR ACETYLATION” (Buck Institute for Research on Aging, priority 2014, published 2015):

Columns and labels:
ribosomal proteins = test: Mass spectrometry of acetylated ribosomal proteins in polysome pellets; assay type: cell-based, human; settings: SKBR3 cells, TSA 1 μM, 2 h or 6 h
Method: Previous studies have shown that pan-inhibitors of class I and II histone deacetylases, like TSA, can rapidly destabilize a number of oncogenic transcripts including HER2 in a cycloheximide-dependent manner (FIG. 9). […] Thus, SKBR3 cells were treated with TSA to evaluate polysome protein acetylation and determine if, similar to RPL24 depletion, histone deacetylase inhibition can affect ribosome assembly dynamics. To detect early (2 h) ribosome or polysome acetylation following histone deacetylase inhibition treatment (1 μM TSA), SKBR3 polysomes were isolated using a discontinuous sucrose gradient as previously described. […]
To prepare polysome samples for mass spectrometry, cells are treated with a histone deacetylase inhibitor and polysome pellets are prepared using a discontinuous sucrose gradient as described above. Protein concentration is determined using the Pierce BCA Protein Assay Kit (Thermo Scientific) and equal amount of protein are trypsin digested. […]
Three biological replicates of polysome or 60S samples are then analyzed by LC-MS/MS using a quadrupole time-of-flight (QqTOF) TripleTOF 5600 mass spectrometer (AB SCIEX, Dublin, Calif.) coupled to an Eksigent (Dublin, Calif.) nanoLC Ultra, 2D plus. […] Quantitative data analysis of acetyl-lysine peptides is performed by integration of selected molecular ion intensities using Skyline MS1 Filtering as previously described. […]

ribosomal protein = test: Acetyl-lysine western blot of ribopellets (ribosomal protein acetylation); assay type: cell-based, human; settings: SKBR3 cells
Method: Previous studies have shown that pan-inhibitors of class I and II histone deacetylases, like TSA, can rapidly destabilize a number of oncogenic transcripts including HER2 in a cycloheximide-dependent manner (FIG. 9). […] Thus, SKBR3 cells were treated with TSA to evaluate polysome protein acetylation and determine if, similar to RPL24 depletion, histone deacetylase inhibition can affect ribosome assembly dynamics. To detect early (2 h) ribosome or polysome acetylation following histone deacetylase inhibition treatment (1 μM TSA), SKBR3 polysomes were isolated using a discontinuous sucrose gradient as previously described. […] Mass spectrometry studies indicate that 15 ribosomal proteins, 11 large subunit proteins (RPL24 included) and 4 small subunit proteins, underwent at least a two-fold induction in acetylation following 2 h or 6 h TSA treatment (1 μM) (FIG. 4b, FIG. 10a-q).
Like TSA, the HDAC6 (class IIb)-selective inhibitors, Tubacin and Compound 101, as well as HDAC6 siRNA, all induce tubulin acetylation as expected as well as ribosomal protein acetylation, including the band that co-migrates with RPL24 (FIG. 4c,d, indicated by arrows). […] Thus, the tubulin acetylating effects of pan-histone deacetylase inhibition, known to be mediated by inhibition or knockdown of HDAC6, correspond to the observed ribosome and RPL24 acetylation responses induced by TSA.
Cells are lysed in RIPA buffer (10 mM Tris-HCL (pH 8.0), 1 mM EDTA, 0.5 mM EGTA, 1% triton X-100, 0.1% sodium deoxycholate, 0.1% SDS, 140 mM NaCl, 20 mM NaF, Complete EDTA-free protease inhibitor tablets (Roche Diagnostics Corp., Basel, Switzerland) and the phosphatase inhibitor cocktail PhosSTOP (Roche)), the latter two as indicated by the manufacturer's protocol. Equal amounts of protein are diluted in 2× sample buffer. Immunoblots on PVDF (Polyvinyldene Fluoride) membranes are blocked with nonfat milk in tris-buffered saline with 0.05% tween-20 (TBST). The following antibodies are incubated with membranes in 5% nonfat milk in TBST: RPL24 (Proteintech, Chicago, Ill.), Cyclin D1, Rack1, RPL4 (Santa Cruz Biotechnology, Santa Cruz, Calif.), NBS1, GAPDH (EMD Millipore Corporation, Chicago, Ill.), Survivin, β-tubulin, acetyl-lysine, eIF6, acetyl-H2B, H2B, (Cell Signaling Technology, Boston, Mass.), acetyl-tubulin, tubulin (Sigma Aldrich (St. Louis, Mo.))
Cells, plated at […] confluency, are treated as indicated. After treatment, cells are treated with 50 μg/ml cycloheximide for 15 minutes. Cells are lysed with a buffer containing 10 mM HEPES, 10 mM KCl, 75 mM NaCl, 10 mM MgCl2, 0.35% NP40, pH 7.9 supplemented with Complete EDTA-free protease inhibitor tablets, PhosSTOP phosphatase inhibitor tablets (Roche) per manufacturer's instructions, 50 μg/ml cycloheximide, SUPERase RNase inhibitors (Life Technologies) per manufacturer's instructions, 15 μM TSA, and 5 mM nicotinimide to inhibit histone deacetylases. Supernatants are collected as cytoplasmic preparations. Where indicated, pellets containing nuclei are resuspended in RIPA buffer (described above). The suspension is spun at 13,000 rpm for 5 min and supernatants are collected as nuclear preparations.
Ribosomes are subsequently isolated from cytoplasmic preparations as described previously. Briefly, lysates are layered on top of a 12% and 33% discontinuous sucrose gradient and spun at 38,000 rpm for 2 h. The resulting polysome pellet is then resuspended, stripped of RNA with acetic acid, and then pelleted with acetone. The pellet is then resuspended in 8 M urea, 2% CHAPS, and 25 mM dithiothreitol (DTT).
FIG. 4: Ribosomal protein acetylation is induced by histone deacetylase inhibition. (a-c) SKBR3 cells were treated with the indicated drugs for the indicated period of time. (d) SKBR3 cells were transfected with the indicated siRNAs and allowed to incubate for 72 hours. (a, c, d). The indicated western blots were performed in ribopellets, total cytoplasmic lysates, or nuclear extracts. […]

**Q.** `CC(/C=C/C(=O)NO)=C\[C@@H](C)C(=O)c1ccc(N(C)C)cc1` [TSA, trichostatin-A] was tested. Which “number of ribosomal proteins with at least a two-fold induction in acetylation” value (ribosomal proteins) did it give?
**A.** 15

**Q.** And the “acetyl-lysine protein bands in polysomes, including band co-migrating with RPL24” value (ribosomal protein; 1 μM TSA, 2 h, western blot)?
**A.** several TSA-induced bands

**Q.** What about the “total RPL24 levels” value (ribosomal protein; 1 μM TSA, 2 h, western blot) of the same compound?
**A.** not altered

**Q.** What about the “ribosomal protein acetylation, including the band that co-migrates with RPL24” value (ribosomal protein; western blot of ribopellets (FIG. 4c,d)) of the same compound?
**A.** induce
